Laboratory results reported in US7411083B2, “Substituted acetic acid derivatives” (Wyeth, priority 2003, dated 2008).

Target: T1, recombinant human plasminogen activator inhibitor-1 (PAI-1) (Homo sapiens, UniProt P05121)
T1 construct: purchased Molecular Innovations, Royal Oak, Mich
Test: Screening for PAI-1 inhibition (residual tPA activity, Spectrozyme-tPA chromogenic substrate)
Format: biochemical
Conditions: test compound at 100 Um; pH 6.6 buffer, 140 nM PAI-1, 70 nM tPA
Outline: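 PAI-1 at 140 nM, pH 6.6 buffer, preincubated 1 h at room temperature with compound (1-100 μM final, ≤0.2% DMSO), then 70 nM tPA added for 30 min. Residual tPA activity read by Spectrozyme-tPA absorbance at 405 nm at 0 and 60 min. Inhibition taken as residual tPA activity.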

T1 sequence (P05121 24-402): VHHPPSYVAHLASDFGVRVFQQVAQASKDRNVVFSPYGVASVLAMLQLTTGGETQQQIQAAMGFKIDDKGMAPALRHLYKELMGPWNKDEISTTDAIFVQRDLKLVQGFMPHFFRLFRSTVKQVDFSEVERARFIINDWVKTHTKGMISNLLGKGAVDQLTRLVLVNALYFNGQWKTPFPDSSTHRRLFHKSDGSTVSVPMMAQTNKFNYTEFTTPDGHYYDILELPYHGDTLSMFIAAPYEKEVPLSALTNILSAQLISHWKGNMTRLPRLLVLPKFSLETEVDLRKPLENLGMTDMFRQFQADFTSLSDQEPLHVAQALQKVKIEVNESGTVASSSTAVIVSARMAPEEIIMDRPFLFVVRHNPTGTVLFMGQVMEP

Point of comparison: Cc1ccc(COc2cccc(-c3ccc(/C=N/OCC(=O)O)cc3)c2)cc1 [Compound 99, {[((1E)-{3′-[(4-methylbenzyl)oxy]-1,1′-biphenyl-4-yl}methylidene)amino]oxy}acetic acid], inhibition at 100 µM 84%. Against it:
- C=CCn1cc(/C=N/OCC(=O)O)c2cc(OCc3cc(C(F)(F)F)cc(C(F)(F)F)c3)ccc21 [Compound 10, ({[(1E)-(1-allyl-5-{[3,5-bis(trifluoromethyl)benzyl]oxy}-1H-indol-3-yl)methylidene]amino}oxy)acetic acid] — higher, 86%
- C=CCn1cc(/C=N/OCC(=O)O)c2cc(OCc3ccc(C(C)(C)C)cc3)ccc21 [Compound 4, {[((1E)-{1-allyl-5-[(4-tert-butylbenzyl)oxy]-1H-indol-3-yl}methylidene)amino]oxy}acetic acid] — lower, 83%
- O=C(O)CO/N=C/c1cn(Cc2ccccc2)c2ccc(OCc3ccc(Cl)cc3)cc12 [Compound 46, {[((1E)-{1-benzyl-5-[(4-chlorobenzyl)oxy]-1H-indol-3-yl}methylidene)amino]oxy}acetic acid] — higher, 86%
- CC(C)(C)c1ccc(COc2cccc(/C=N/OCC(=O)O)c2OCc2ccc(C(C)(C)C)cc2)cc1 [Compound 135, {[((1E)-{2,3-bis[(4-tert-butylbenzyl)oxy]phenyl}methylidene)amino]oxy}acetic acid] — lower, 58%
- CC(C)(C)c1ccc(COc2ccc(-c3cccc(/C=N/OCC(=O)O)c3)cc2)cc1 [Compound 74, {[((1E)-{4′-[(4-tert-butylbenzyl)oxy]-1,1′-biphenyl-3-yl}methylidene)amino]oxy}acetic acid] — lower, 34%
- Cc1ccc(COc2ccc(-c3cccc(/C=N/OCC(=O)O)c3)cc2)cc1 [Compound 85, {[((1E)-{4′-[(4-methylbenzyl)oxy]-1,1′-biphenyl-3-yl}methylidene)amino]oxy}acetic acid] — lower, 34%
- O=C(O)CO/N=C/c1cccc(-c2ccc(OCc3ccc(C(F)(F)F)cc3)cc2)c1 [Compound 73, ({[(1E)-(4′-{[4-(trifluoromethyl)benzyl]oxy}-1,1′-biphenyl-3-yl)methylidene]amino}oxy)acetic acid] — lower, 59%
- Cn1cc(/C=N/OCC(=O)O)c2cc(OCc3ccccc3Cl)ccc21 [Compound 50, {[((1E)-{5-[(2-chlorobenzyl)oxy]-1-methyl-1H-indol-3-yl}methylidene)amino]oxy}acetic acid] — lower, 31%
- O=C(O)CO/N=C/c1cc(OCc2ccc(F)c(F)c2)cc(OCc2ccc(F)c(F)c2)c1 [Compound 151, {[((1E)-{3,5-bis[(3,4-difluorobenzyl)oxy]phenyl}methylidene)amino]oxy}acetic acid] — higher, 88%
- O=C(O)CO/N=C/c1ccc(OCc2ccc(C(F)(F)F)cc2)c(OCc2ccc(C(F)(F)F)cc2)c1 [Compound 114, ({[(1E)-(3,4-bis{[4-(trifluoromethyl)benzyl]oxy}phenyl)methylidene]amino}oxy)acetic acid] — higher, 93%
- Cn1cc(/C=N/OCC(=O)O)c2cc(OCc3ccc(Cl)c(Cl)c3)ccc21 [Compound 54, {[((1E)-{5-[(3,4-dichlorobenzyl)oxy]-1-methyl-1H-indol-3-yl}methylidene)amino]oxy}acetic acid] — higher, 91%
- O=C(O)CO/N=C/c1cccc(-c2cccc(OCc3cccc(Cl)c3)c2)c1 [Compound 63, {[((1E)-{3′-[(3-chlorobenzyl)oxy]-1,1′-biphenyl-3-yl}methylidene)amino]oxy}acetic acid] — higher, 91%
- O=C(O)CO/N=C/c1ccc(-c2cccc(OCc3ccccc3)c2)cc1 [Compound 93, [({(1E)-[3′-(benzyloxy)-1,1′-biphenyl-4-yl]methylidene}amino)oxy]acetic acid] — higher, 85%
- O=C(O)CO/N=C/c1cc(OCc2ccc(Br)cc2)ccc1OCc1ccc(Br)cc1 [Compound 155, {[((1E)-{2,5-bis[(4-bromobenzyl)oxy]phenyl}methylidene)amino]oxy}acetic acid] — higher, 85%
- O=C(O)CO/N=C/c1cccc(-c2cccc(OCc3cccc(Br)c3)c2)c1 [Compound 62, {[((1E)-{3′-[(3-bromobenzyl)oxy]-1,1′-biphenyl-3-yl}methylidene)amino]oxy}acetic acid] — the same, 84%
- O=C(O)CO/N=C/c1ccc(-c2ccc(OCc3cccc(Br)c3)cc2)cc1 [Compound 103, {[((1E)-{4′-[(3-bromobenzyl)oxy]-1,1′-biphenyl-4-yl}methylidene)amino]oxy}acetic acid] — lower, 62%
- O=C(O)CO/N=C/c1cc(OCc2ccc(C(F)(F)F)cc2)ccc1OCc1ccc(C(F)(F)F)cc1 [Compound 154, ({[(1E)-(2,5-bis{[4-(trifluoromethyl)benzyl]oxy}phenyl)methylidene]amino}oxy)acetic acid] — higher, 91%
- O=C(O)CO/N=C/c1cccc(OCc2cccc(C(F)(F)F)c2)c1OCc1cccc(C(F)(F)F)c1 [Compound 139, ({[(1E)-(2,3-bis{[3-(trifluoromethyl)benzyl]oxy}phenyl)methylidene]amino}oxy)acetic acid] — higher, 90%
- O=C(O)CO/N=C/c1cc(OCc2cccc(Br)c2)cc(OCc2cccc(Br)c2)c1 [Compound 147, {[((1E)-{3,5-bis[(3-bromobenzyl)oxy]phenyl}methylidene)amino]oxy}acetic acid] — higher, 87%
- Cc1cccc(COc2ccc(OCc3cccc(C)c3)c(/C=N/OCC(=O)O)c2)c1 [Compound 159, {[((1E)-{2,5-bis[(3-methylbenzyl)oxy]phenyl}methylidene)amino]oxy}acetic acid] — lower, 69%
- CCn1cc(/C=N/OCC(=O)O)c2cc(OCc3cccc(Cl)c3)ccc21 [Compound 17, {[((1E)-{5-[(3-chlorobenzyl)oxy]-1-ethyl-1H-indol-3-yl}methylidene)amino]oxy}acetic acid] — lower, 68%
- C=CCn1cc(/C=N/OCC(=O)O)c2cc(OCc3cccc(Br)c3)ccc21 [Compound 13, {[((1E)-{1-allyl-5-[(3-bromobenzyl)oxy]-1H-indol-3-yl}methylidene)amino]oxy}acetic acid] — higher, 95%
- O=C(O)CO/N=C/c1ccc(OCc2ccc(F)cc2)c(OCc2ccc(F)cc2)c1 [Compound 113, {[((1E)-{3,4-bis[(4-fluorobenzyl)oxy]phenyl}methylidene)amino]oxy}acetic acid] — higher, 91%
- Cc1ccc(COc2ccc(-c3ccc(/C=N/OCC(=O)O)cc3)cc2)cc1 [Compound 109, {[((1E)-{4′-[(4-methylbenzyl)oxy]-1,1′-biphenyl-4-yl}methylidene)amino]oxy}acetic acid] — lower, 7%
- O=C(O)CO/N=C/c1ccc(OCc2cccc(Cl)c2)cc1OCc1cccc(Cl)c1 [Compound 127, {[((1E)-{2,4-bis[(3-chlorobenzyl)oxy]phenyl}methylidene)amino]oxy}acetic acid] — higher, 88%
- CCn1cc(/C=N/OCC(=O)O)c2cc(OCc3cc(C(F)(F)F)cc(C(F)(F)F)c3)ccc21 [Compound 11, ({[(1E)-(5-{[3,5-bis(trifluoromethyl)benzyl]oxy}-1-ethyl-1H-indol-3-yl)methylidene]amino}oxy)acetic acid] — lower, 71%
- O=C(O)CO/N=C/c1cccc(-c2cccc(OCc3ccc(Cl)c(Cl)c3)c2)c1 [Compound 68, {[((1E)-{3′-[(3,4-dichlorobenzyl)oxy]-1,1′-biphenyl-3-yl}methylidene)amino]oxy}acetic acid] — lower, 83%
- CC(C)Cc1ccc(OCC#Cc2ccc(/C=N/OCC(=O)O)cc2)cc1 [Compound 167, {[((1E)-{4-[3-(4-isobutylphenoxy)prop-1-ynyl]phenyl}methylidene)amino]oxy}acetic acid] — lower, 53%
- O=C(O)CO/N=C/c1cccc(OCc2cccc(Cl)c2)c1OCc1cccc(Cl)c1 [Compound 136, {[((1E)-{2,3-bis[(3-chlorobenzyl)oxy]phenyl}methylidene)amino]oxy}acetic acid] — lower, 80%
- O=C(O)CO/N=C/c1cccc(-c2ccc(OCc3ccc4ccccc4c3)cc2)c1 [Compound 84, [({(1E)-[4′-(2-naphthylmethoxy)-1,1′-biphenyl-3-yl]methylidene}amino)oxy]acetic acid] — lower, 30%
- CCn1cc(/C=N/OCC(=O)O)c2cc(OCc3ccc(Br)cc3)ccc21 [Compound 8, {[((1E)-{5-[(4-bromobenzyl)oxy]-1-ethyl-1H-indol-3-yl}methylidene)amino]oxy}acetic acid] — lower, 63%
- O=C(O)CO/N=C/c1cccc(-c2cccc(OCc3c(Cl)cccc3Cl)c2)c1 [Compound 72, {[((1E)-{3′-[(2,6-dichlorobenzyl)oxy]-1,1′-biphenyl-3-yl}methylidene)amino]oxy}acetic acid] — higher, 88%
- O=C(O)CO/N=C/c1ccc(-c2cccc(OCc3ccccc3Cl)c2)cc1 [Compound 96, {[((1E)-{3′-[(2-chlorobenzyl)oxy]-1,1′-biphenyl-4-yl}methylidene)amino]oxy}acetic acid] — lower, 61%
- Cc1ccc(COc2ccc3c(c2)c(/C=N/OCC(=O)O)cn3Cc2ccccc2)cc1 [Compound 21, {[((1E)-{1-benzyl-5-[(4-methylbenzyl)oxy]-1H-indol-3-yl}methylidene)amino]oxy}acetic acid] — lower, 80%
- O=C(O)CO/N=C/c1cccc(-c2ccc(OCc3ccccc3)cc2)c1 [Compound 79, [({(1E)-[4′-(benzyloxy)-1,1′-biphenyl-3-yl]methylidene}amino)oxy]acetic acid] — lower, 53%
- O=C(O)CO/N=C/c1c[nH]c2ccc(OCc3ccccc3Cl)cc12 [Compound 30, {[((1E)-{5-[(2-chlorobenzyl)oxy]-1H-indol-3-yl}methylidene)amino]oxy}acetic acid] — lower, 11%
- O=C(O)CO/N=C/c1ccc(OCc2ccc(Br)cc2)c(OCc2ccc(Br)cc2)c1 [Compound 115, {[((1E)-{3,4-bis[(4-bromobenzyl)oxy]phenyl}methylidene)amino]oxy}acetic acid] — higher, 87%
